According to US11866450B2, “Modulators of Cystic Fibrosis Transmembrane Conductance regulator, pharmaceutical compositions, methods of treatment, and process for making the modulators” (priority 2018, dated 2024):

Target: CFTR-mediated chloride transport (Homo sapiens, UniProt P13569)
Format: cell-based
Conditions: enteroid cells incubated with test compound 18-24 hours, acute 10 μM forskolin and 300 nM Compound III; for Max. Activity: % of chloride transport with 3 μM Compound A, 3 μM Compound II and 300 nM acute Compound III triple combination control
Protocol: Base medium (ADF+++) consisted of Advanced DMEM/Ham's F12, 2 mM Glutamax, 10 mM HEPES, […] penicillin/streptomycin.
Intestinal enteroid maintenance medium (IEMM) consisted of ADF+++, 1× B27 supplement, 1× N2 supplement, 1.25 mM N-acetyl cysteine, 10 mM Nicotinamide, 50 ng/mL hEGF, 10 nM Gastrin, 1 μg/mL hR-spondin-1, 100 ng/mL hNoggin, TGF-b type 1 inhibitor A-83-01, 100 μg/mL Primocin, 10 μM P38 MAPK inhibitor SB202190.
Bath 1 Buffer consisted of 1 mM MgCl2, 160 mM NaCl, 4.5 mM KCl, 10 mM HEPES, 10 mM Glucose, 2 mM CaCl2).
Chloride Free Buffer consisted of 1 mM Magnesium Gluconate, 2 mM Calcium Gluconate, 4.5 mM Potassium Gluconate, 160 mM Sodium Gluconate, 10 mM HEPES, 10 mM Glucose.
Bath1 Dye Solution consisted of Bath 1 Buffer, 0.04% Pluronic F127, 20 μM Methyl Oxonol, 30 μM CaCCinh-A01, 30 μM Chicago Sky Blue.
Chloride Free Dye Solution consisted of Chloride Free Buffer, 0.04% Pluronic F127, 20 μM Methyl Oxonol, 30 μM CaCCinh-A01, 30 μM Chicago Sky Blue.
Chloride Free Dye Stimulation Solution consisted of Chloride Free Dye Solution, 10 μM forskolin, 100 μM IBMX, and 300 nM Compound III.
Human intestinal epithelial enteroid cells were obtained from the Hubrecht Institute for Developmental Biology and Stem Cell Research, Utrecht, The Netherlands and expanded in T-Flasks as previously described (Dekkers J F, Wiegerinck C L, de Jonge H R, Bronsveld I, Janssens H M, de Winter-de Groot K M, Brandsma A M, de Jong N W M, Bijvelds M J C, Scholte B J, Nieuwenhuis E E S, van den Brink S, Clevers H, van der Ent C K, Middendorp S and M Beekman J M. A functional CFTR assay using primary cystic fibrosis intestinal organoids. Nat Med. 2013 July; 19(7):939-45).
Cells were recovered in cell recovery solution, collected by centrifugation at 650 rpm for 5 min at 4° C., resuspended in TryPLE and incubated for 5 min at 37° C. Cells were then collected by centrifugation at 650 rpm for 5 min at 4° C. and resuspended in IEMM containing 10 μM ROCK inhibitor (RI) (trans-4-[(1R)-1-aminoethyl]-N-4-pyridinylcyclohexanecarboxamide). The cell suspension was passed through a 40 μm cell strainer and resuspended at 1×10^6 cells/mL in IEMM containing 10 μM RI. Cells were seeded at 5000 cells/well into multi-well plates and incubated for overnight at 37° C., 95% humidity and 5% CO2 prior to assay.
Enteroid cells were incubated with test compound in IEMM for 18-24 hours at 37° C., 95% humidity and 5% CO2. Following compound incubations, a membrane potential dye assay was employed using a FLIPR Tetra to directly measure the potency and efficacy of the test compound on CFTR-mediated chloride transport following acute addition of 10 μM forskolin and 300 nM Compound III. Briefly, cells were washed 5 times in Bath 1 Buffer. Bath 1 Dye Solution was added and the cells were incubated for 25 min at room temperature. Following dye incubation, cells were washed 3 times in Chloride Free Dye Solution. Chloride transport was initiated by addition of Chloride Free Dye Stimulation Solution and the fluorescence signal was read for 15 min. The CFTR-mediated chloride transport for each condition was determined from the AUC of the fluorescence response to acute forskolin and 300 nM Compound III stimulation. Chloride transport was then expressed as a percentage of the chloride transport following treatment with 3 μM Compound A, 3 μM Compound II and 300 nM acute Compound III triple combination control (% Activity).

CFTR-mediated chloride transport, sequence (P13569 whole entry, looked up): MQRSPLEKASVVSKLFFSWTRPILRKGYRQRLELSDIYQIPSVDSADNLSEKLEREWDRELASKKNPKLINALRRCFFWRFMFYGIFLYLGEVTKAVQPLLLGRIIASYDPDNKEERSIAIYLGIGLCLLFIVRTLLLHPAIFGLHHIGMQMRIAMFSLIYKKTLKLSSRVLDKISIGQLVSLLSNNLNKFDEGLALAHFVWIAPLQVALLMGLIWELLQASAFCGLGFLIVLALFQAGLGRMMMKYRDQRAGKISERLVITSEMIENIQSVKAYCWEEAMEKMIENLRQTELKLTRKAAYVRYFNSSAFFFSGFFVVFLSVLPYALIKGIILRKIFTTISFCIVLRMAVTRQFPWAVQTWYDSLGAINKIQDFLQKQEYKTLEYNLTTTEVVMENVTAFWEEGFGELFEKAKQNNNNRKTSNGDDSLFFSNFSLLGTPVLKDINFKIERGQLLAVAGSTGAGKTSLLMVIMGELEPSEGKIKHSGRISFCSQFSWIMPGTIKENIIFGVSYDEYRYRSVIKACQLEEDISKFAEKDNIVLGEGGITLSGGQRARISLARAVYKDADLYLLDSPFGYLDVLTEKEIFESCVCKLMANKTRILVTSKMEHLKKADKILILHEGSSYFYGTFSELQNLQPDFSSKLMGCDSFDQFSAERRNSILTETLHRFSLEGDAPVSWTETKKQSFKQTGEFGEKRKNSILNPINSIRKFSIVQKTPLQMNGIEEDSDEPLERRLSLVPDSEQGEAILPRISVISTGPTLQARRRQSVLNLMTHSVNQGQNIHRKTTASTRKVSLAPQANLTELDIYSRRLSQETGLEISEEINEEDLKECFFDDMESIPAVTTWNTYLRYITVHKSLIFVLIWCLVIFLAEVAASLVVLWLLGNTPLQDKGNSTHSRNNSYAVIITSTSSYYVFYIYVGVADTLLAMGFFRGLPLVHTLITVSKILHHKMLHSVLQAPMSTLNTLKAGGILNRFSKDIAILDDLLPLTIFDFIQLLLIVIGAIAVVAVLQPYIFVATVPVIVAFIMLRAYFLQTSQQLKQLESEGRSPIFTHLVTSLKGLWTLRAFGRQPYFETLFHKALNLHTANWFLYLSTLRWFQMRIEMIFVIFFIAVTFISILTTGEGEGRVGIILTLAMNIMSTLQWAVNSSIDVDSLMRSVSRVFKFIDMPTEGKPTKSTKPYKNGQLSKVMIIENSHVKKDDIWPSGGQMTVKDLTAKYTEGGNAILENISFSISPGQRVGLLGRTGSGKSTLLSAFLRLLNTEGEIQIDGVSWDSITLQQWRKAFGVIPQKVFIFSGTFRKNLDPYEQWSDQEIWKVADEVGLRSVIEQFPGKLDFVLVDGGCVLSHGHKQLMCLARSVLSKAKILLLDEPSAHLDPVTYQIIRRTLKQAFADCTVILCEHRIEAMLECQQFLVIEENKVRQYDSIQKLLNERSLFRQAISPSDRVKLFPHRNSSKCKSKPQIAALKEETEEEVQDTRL

Structure (SMILES) | EC50 [nM] | Max. Activity
CC1(C)C[C@H]2CCCNc3cccc(n3)S(=O)(=O)NC(=O)c3ccc(-n4ccc(OCCC(C5CC5)C5CC5)n4)nc3N1C2 [Compound 65, (14R)-8-[3-(3,3-dicyclopropylpropoxy)-1H-pyrazol-1-yl]-12,12-dimethyl-2λ^6-thia-3,9,11,18,23-pentaazatetracyclo[17.3.1.111,14.05,10]tetracosa-1(22),5,7,9,19(23),20-hexaene-2,2,4-trione] | < 1000 | ++ (++ is 30-60%)
Cc1cn2nc1S(=O)(=O)NC(=O)c1ccc(-n3ccc(OCCC(C4CC4)C4CC4)n3)nc1N1C[C@H](CCC2)CC1(C)C (single isomer, unassigned) [Compound 202, 4-[3-(3,3-dicyclopropylpropoxy)-1H-pyrazol-1-yl]-12,20,20-trimethyl-10λ^6-thia-1,3,9,14,22-pentaazatetracyclo[16.2.1.111,14.02,7]docosa-2(7),3,5,11(22),12-pentaene-8,10,10-trione] | < 1000 | ++ (++ is 30-60%)
CC1(C)C[C@@H]2CN1c1nc(-n3ccc(OCCCC4(C(F)(F)F)CC4)n3)ccc1C(=O)NS(=O)(=O)c1cccc(n1)NCCO2 (single isomer, unassigned) [Compound 160, 12,12-dimethyl-8-(3-{3-[1-(trifluoromethyl)cyclopropyl]propoxy}-1H-pyrazol-1-yl)-15-oxa-2λ^6-thia-3,9,11,18,23-pentaazatetracyclo[17.3.1.111,14.05,10]tetracosa-1(23),5,7,9,19,21-hexaene-2,2,4-trione] | < 1000 | +++ (+++ is >60%)
CC(C)(C)CCCN1CCN(c2ccc3c(n2)N2CC(CCCn4ccc(n4)S(=O)(=O)NC3=O)CC2(C)C)C1=O (stereo not shown) [Compound 169, 4-[3-(4,4-dimethylpentyl)-2-oxoimidazolidin-1-yl]-20,20-dimethyl-10λ^6-thia-1,3,9,14,22-pentaazatetracyclo[16.2.1.111,14.02,7]docosa-2,4,6,11(22),12-pentaene-8,10,10-trione] | < 1000 | ++ (++ is 30-60%)
CC1(C)C[C@@H]2CCCNc3nc(ccc3O)S(=O)(=O)NC(=O)c3ccc(-n4ccc(OCCC5C6(CC6)C56CC6)n4)nc3N1C2 [Compound 254, (14S)-8-[3-(2-{dispiro[2.0.2.1]heptan-7-yl}ethoxy)-1H-pyrazol-1-yl]-20-hydroxy-12,12-dimethyl-2λ^6-thia-3,9,11,18,23-pentaazatetracyclo[17.3.1.111,14.05,10]tetracosa-1(23),5,7,9,19,21-hexaene-2,2,4-trione] | < 1000 | ++ (++ is 30-60%)
CC1(C)C[C@@H]2CCCNc3ccc(O)c(n3)S(=O)(=O)NC(=O)c3ccc(-n4ccc(OCCC5C6(CC6)C56CC6)n4)nc3N1C2 [Compound 260, (14S)-8-[3-(2-{dispiro[2.0.2.1]heptan-7-yl}ethoxy)-1H-pyrazol-1-yl]-22-hydroxy-12,12-dimethyl-2λ^6-thia-3,9,11,18,23-pentaazatetracyclo[17.3.1.111,14.05,10]tetracosa-1(22),5,7,9,19(23),20-hexaene-2,2,4-trione] | < 1000 | +++ (+++ is >60%)
Cc1c2cnn1CCCC1CN(c3nc(-n4ccc(OCC(C)(C)C(F)(F)F)n4)ccc3C(=O)NS2(=O)=O)C(C)(C)C1 (stereo not shown) [Compound 280, 20,20,22-trimethyl-4-[3-(3,3,3-trifluoro-2,2-dimethylpropoxy)-1H-pyrazol-1-yl]-10λ^6-thia-1,3,9,13,14-pentaazatetracyclo[16.2.1.111,14.02,7]docosa-2,4,6,11(22),12-pentaene-8,10,10-trione] | < 1000 | ++ (++ is 30-60%)
CC1(C)C[C@@H]2CN1c1nc(-n3ccc(OCCC4C5(CC5)C45CC5)n3)ccc1C(=O)NS(=O)(=O)c1cccc(n1)NCC(F)(F)C2 (single isomer, unassigned) [Compound 304, 8-[3-(2-{dispiro[2.0.2.1]heptan-7-yl}ethoxy)-1H-pyrazol-1-yl]-16,16-difluoro-12,12-dimethyl-2λ^6-thia-3,9,11,18,23-pentaazatetracyclo[17.3.1.111,14.05,10]tetracosa-1(22),5,7,9,19(23),20-hexaene-2,2,4-trione] | < 1000 | +++ (+++ is >60%)
CC1(C)C[C@@H]2CCCNc3cccc(n3)S(=O)(=O)NC(=O)c3ccc(N4CCN(C5CCCCC5)C4=O)nc3N1C2 [Compound 200, (14S)-8-(3-cyclohexyl-2-oxoimidazolidin-1-yl)-12,12-dimethyl-2λ^6-thia-3,9,11,18,23-pentaazatetracyclo[17.3.1.111,14.05,10]tetracosa-1(22),5,7,9,19(23),20-hexaene-2,2,4-trione] | < 1000 | + (+ is <30%)
CC1(C)C[C@H]2CCCn3cc(cn3)S(=O)(=O)NC(=O)c3ccc(-n4ccc(OCCC5(C(F)(F)F)CC5)n4)nc3N1C2 (single isomer, unassigned) [Compound 118, 20,20-Dimethyl-4-(3-{2-[1-(trifluoromethyl)cyclopropyl]ethoxy}-1H-pyrazol-1-yl)-10λ^6-thia-1,3,9,13,14-pentaazatetracyclo[16.2.1.111,14.02,7]docosa-2,4,6,11(22),12-pentaene-8,10,10-trione] | 1000 to 3000 | + (+ is <30%)
CN1CCC[C@H]2CN(c3nc(-n4ccc(OCCC5(C(F)(F)F)CC5)n4)ccc3C(=O)NS(=O)(=O)c3cccc1n3)C(C)(C)C2 (single isomer, unassigned) [Compound 138, 12,12,18-Trimethyl-8-(3-{2-[1-(trifluoromethyl)cyclopropyl]ethoxy}-1H-pyrazol-1-yl)-2λ^6-thia-3,9,11,18,23-pentaazatetracyclo[17.3.1.111,14.05,10]tetracosa-1(23),5(10),6,8,19,21-hexaene-2,2,4-trione] | > 3000 | + (+ is <30%)
CC1(C)CC[C@H]2CCCOc3cccc(c3)S(=O)(=O)NC(=O)c3ccc(-n4ccc(OCCC5(C(F)(F)F)CC5)n4)nc3N21 (single isomer, unassigned) [Compound 7, 12,12-dimethyl-8-(3-{2-[1-(trifluoromethyl)cyclopropyl]ethoxy}-1H-pyrazol-1-yl)-19-oxa-2λ^6-thia-3,9,11-triazatetracyclo[18.3.1.05,10.011,15]tetracosa-1(24),5(10),6,8,20,22-hexaene-2,2,4-trione] | < 1000 | ++ (++ is 30-60%)
C[C@@H]1CC[C@H]2CN(c3nc(N4CCN(CCC(C)(C)C)C4=O)ccc3C(=O)NS(=O)(=O)c3cccc(n3)N1)C(C)(C)C2 (single isomer, unassigned) [Compound 216, 8-[3-(3,3-dimethylbutyl)-2-oxoimidazolidin-1-yl]-12,12,17-trimethyl-2λ^6-thia-3,9,11,18,23-pentaazatetracyclo[17.3.1.111,14.05,10]tetracosa-1(22),5,7,9,19(23),20-hexaene-2,2,4-trione] | < 1000 | +++ (+++ is >60%)
CC(C)(C)CCCN1CCN(c2ccc3c(n2)N2C[C@@H](CCCNc4cccc(n4)S(=O)(=O)NC3=O)CC2(C)C)C1=O [Compound 193, (14S)-8-[3-(4,4-dimethylpentyl)-2-oxoimidazolidin-1-yl]-12,12-dimethyl-2λ^6-thia-3,9,11,18,23-pentaazatetracyclo[17.3.1.111,14.05,10]tetracosa-1(22),5,7,9,19(23),20-hexaene-2,2,4-trione] | < 1000 | +++ (+++ is >60%)
